Assay results published in US12678446B2 (PFIZER INC., priority 2020, dated 2026).

Key:
cell toxicity CC50 = type: cell-based; details: human; Hep-G2 cells; mean of at least two experiments; read-out: Cell Cytotoxicity CC50
[1] = tested on: RSV (RSV A2 ECACC, 0709161v); experiment: RSV plaque reduction assay; type: cell-based, respiratory syncytial virus; details: human respiratory syncytial virus, HepG2, read-out: RSV A2 Plaque EC50, RSV A2 in Hep-G2 cells; mean of at least two experiments unless noted (n = 1)
Procedure: Compounds w ere subjected to RSV plaque reduction assays according to the following protocol.
Hep-G2 cells (ECACC, 85011430) were passaged in flasks and seeded in 24-well plates in DMEM containing antibiotics and supplemented with 10% FBS. During inoculation and subsequent incubation, cells were cultured in DMEM containing 2% FBS. 100 plaque forming unit/well of RSV (RSV A2 ECACC, 0709161v) was mixed with eight serial dilutions of compound. Subsequently, 100 μL of the virus/compound mixtures was added to confluent Hep-G2 cell monolayers. The cells and virus/compound mixtures were incubated at 37° C. in a humidified 5% CO2 incubator for 2 h prior to removal of the inoculum and addition of 1 mL of overlay (DMEM containing 2% FBS and 0.8% CMC) containing compound dilutions. The cells and were incubated at 37° C. in a humidified 5% CO2 incubator for 2 days.
Cells were washed with PBS before adding 75/25% v/v EtOH MeOH, for 3 min. Fixative was removed and plates were washed with PBS. A pre-titrated amount of the primary antibody was added in 200 μL PBS/2% milk powder, and plates incubated for 90 min at 37° C. The plates were washed 3 times with PBS/0.05% Tween20 before addition of rabbit anti-goat horse radish peroxidase in 200 μL PBS/2% milk powder, and incubated for 1 h at 37° C. Following three wash steps with PBS/0.05% Tween20, 200 μL ready-to-use TrueBlue was added and plates were incubated at rt for 10-15 min before washing with water. After removal of water, plates were air-dried in the dark.
Plates were scanned and analysed using the Immunospot S6 Macro analyser, which is equipped with BioSpot analysis software for counting immunostained plaques (virospots). Plaque counts were used to calculate % infection relative to the mean of the plaque count in the virus control wells for RSV. […] Unless otherwise noted, plaque EC50 and cell toxicity CC50 values are a mean of at least two experiments and figures are rounded to whole units.

Compound	CC50 (cell toxicity CC50)	EC50 [1]
CC(C)Nc1ccc(-c2nn3c(c2C(=O)N[C@H]2N=C(c4ccccc4)c4cccc(F)c4NC2=O)O[C@H](C)CC3)c(F)n1 [Example 30, (5R)-N-[(3S)-9-fluoro-2-oxo-5-phenyl-1,3-dihydro-1,4-benzodiazepin-3-yl]-2-[2-fluoro-6-(propan-2-ylamino)pyridin-3-yl]-5-methyl-6,7-dihydro-5H-pyrazolo[5,1-b][1,3]oxazine-3-carboxamide]	> 25 µM	0.016 µM
CC(C)Nc1ccc(-c2nn3c(c2C(=O)N[C@H]2N=C(c4ccccc4)c4cccc(F)c4NC2=O)O[C@@H](C)CC3)c(F)n1 [Example 31, (5S)-N-[(3S)-9-fluoro-2-oxo-5-phenyl-1,3-dihydro-1,4-benzodiazepin-3-yl]-2-[2-fluoro-6-(propan-2-ylamino)pyridin-3-yl]-5-methyl-6,7-dihydro-5H-pyrazolo[5,1-b][1,3]oxazine-3-carboxamide]	> 25 µM	0.011 µM
O=C(N[C@H]1N=C(c2ccccc2)c2cccc(F)c2NC1=O)c1c(-c2ccc(F)cc2F)nn2c1S(=O)(=O)CCC2 [Example 32, 2-(2,4-Difluorophenyl)-N-[(3S)-9-fluoro-2-oxo-5-phenyl-2,3-dihydro-1H-1,4-benzodiazepin-3-yl]-4,4-dioxo-5H,6H,7H-4λ^6-pyrazolo[3,2-b][1,3]thiazine-3-carboxamide]	> 25 µM	0.411 µM
O=C(N[C@H]1N=C(c2ccccc2)c2cccc(F)c2NC1=O)c1c(-c2ccccc2F)nn2c1S(=O)(=O)CCC2 [Example 33, 2-(2-Fluorophenyl)-N-[(3S)-9-fluoro-2-oxo-5-phenyl-2,3-dihydro-1H-1,4-benzodiazepin-3-yl]-4,4-dioxo-5H,6H,7H-4λ^6-pyrazolo[3,2-b][1,3]thiazine-3-carboxamide]	> 25 µM	0.474 µM
O=C(N[C@H]1N=C(c2ccccc2)c2cccc(F)c2NC1=O)c1c(-c2ccc(F)cc2F)nn2c1SCCC2 [Example 34, 2-(2,4-Difluorophenyl)-N-[(3S)-9-fluoro-2-oxo-5-phenyl-2,3-dihydro-1H-1,4-benzodiazepin-3-yl]-5H,6H,7H-pyrazolo[3,2-b][1,3]thiazine-3-carboxamide]	> 25 µM	0.143 µM
O=C(N[C@H]1N=C(c2ccccc2)c2cccc(F)c2NC1=O)c1c(-c2ccccc2F)nn2c1SCCC2 [Example 35, N-[(3S)-9-Fluoro-2-oxo-5-phenyl-2,3-dihydro-1H-1,4-benzodiazepin-3-yl]-2-(2-fluorophenyl)-5H,6H,7H-pyrazolo[3,2-b][1,3]thiazine-3-carboxamide]	> 25 µM	0.117 µM
O=C(N[C@H]1N=C(c2ccccc2)c2ccccc2NC1=O)c1nn2c(c1-c1ccccc1F)OCCC2 [Example 36, 3-(2-Fluorophenyl)-N-[(3S)-2-oxo-5-phenyl-1,3-dihydro-1,4-benzodiazepin-3-yl]-6,7-dihydro-5H-pyrazolo[5,1-b][1,3]oxazine-2-carboxamide]	> 25 µM	0.444 µM
O=C(N[C@H]1N=C(c2ccccc2)c2ccccc2NC1=O)c1nn2c(c1-c1ccccc1F)OCC2 [Example 37, 7-(2-Fluorophenyl)-N-[(3S)-2-oxo-5-phenyl-1,3-dihydro-1,4-benzodiazepin-3-yl]-2,3-dihydropyrazolo[5,1-b][1,3]oxazole-6-carboxamide]	> 25 µM	0.333 µM
O=C(N[C@H]1N=C(c2ccccc2)c2ccccc2NC1=O)c1nn2c(c1-c1ccc(NC3CC3)nc1F)OCCC2 [Example 38, 3-[6-(Cyclopropylamino)-2-fluoropyridin-3-yl]-N-[(3S)-2-oxo-5-phenyl-1,3-dihydro-1,4-benzodiazepin-3-yl]-6,7-dihydro-5H-pyrazolo[5,1-b][1,3]oxazine-2-carboxamide]	> 25 µM	0.189 µM
O=C(N[C@H]1N=C(c2ccccc2)c2cccc(F)c2NC1=O)c1c(-c2ccc(NC3CC3)nc2F)nn2c1OCCC2 [Example 39, 2-[6-(Cyclopropylamino)-2-fluoropyridin-3-yl]-N-[(3S)-9-fluoro-2-oxo-5-phenyl-1,3-dihydro-1,4-benzodiazepin-3-yl]-6,7-dihydro-5H-pyrazolo[5,1-b][1,3]oxazine-3-carboxamide]	> 25 µM	0.04 µM
CC1(C)COc2c(C(=O)N[C@H]3N=C(c4ccccc4)c4ccccc4NC3=O)c(-c3ccccc3F)nn2C1 [Example 40, 2-(2-Fluorophenyl)-6,6-dimethyl-N-[(3S)-2-oxo-5-phenyl-1,3-dihydro-1,4-benzodiazepin-3-yl]-5,7-dihydropyrazolo[5,1-b][1,3]oxazine-3-carboxamide]	> 25 µM	0.057 µM
CC1(C)COc2c(C(=O)N[C@H]3N=C(c4ccccc4)c4cccc(F)c4NC3=O)c(-c3ccccc3F)nn2C1 [Example 41, N-[(3S)-9-fluoro-2-oxo-5-phenyl-1,3-dihydro-1,4-benzodiazepin-3-yl]-2-(2-fluorophenyl)-6,6-dimethyl-5,7-dihydropyrazolo[5,1-b][1,3]oxazine-3-carboxamide]	> 25 µM	0.029 µM
Cc1cnc(F)c(-c2nn3c(c2C(=O)N[C@H]2N=C(c4ccccc4)c4ccccc4NC2=O)OCCC3)c1 [Example 42, 2-(2-Fluoro-5-methylpyridin-3-yl)-N-[(3S)-2-oxo-5-phenyl-1,3-dihydro-1,4-benzodiazepin-3-yl]-6,7-dihydro-5H-pyrazolo[5,1-b][1,3]oxazine-3-carboxamide]	> 25 µM	0.124 µM
Cc1cnc(F)c(-c2nn3c(c2C(=O)N[C@H]2N=C(c4ccccc4)c4cccc(F)c4NC2=O)OCCC3)c1 [Example 43, 2-(2-Fluoro-5-methylpyridin-3-yl)-N-[(3S)-9-fluoro-2-oxo-5-phenyl-1,3-dihydro-1,4-benzodiazepin-3-yl]-6,7-dihydro-5H-pyrazolo[5,1-b][1,3]oxazine-3-carboxamide]	> 25 µM	0.101 µM
O=C(N[C@H]1N=C(c2ccccc2)c2ccccc2NC1=O)c1c(-c2ccc(NC3CC3)nc2F)nn2c1OCCC2 [Example 44, 2-[6-(Cyclopropylamino)-2-fluoropyridin-3-yl]-N-[(3S)-2-oxo-5-phenyl-1,3-dihydro-1,4-benzodiazepin-3-yl]-6,7-dihydro-5H-pyrazolo[5,1-b][1,3]oxazine-3-carboxamide]	> 25 µM	0.055 µM
O=C(N[C@H]1N=C(c2ccccc2)c2cccc(F)c2NC1=O)c1c(C2CC2)nn2c1OCCC2 [Example 45, 2-Cyclopropyl-N-[(3S)-9-fluoro-2-oxo-5-phenyl-1,3-dihydro-1,4-benzodiazepin-3-yl]-6,7-dihydro-5H-pyrazolo[5,1-b][1,3]oxazine-3-carboxamide]	> 25 µM	0.301 µM
C[C@@H]1CCn2nc(-c3cncc(Cl)c3)c(C(=O)N[C@H]3N=C(c4ccccc4)c4ccccc4NC3=O)c2O1 [Example 46, (5R)-2-(5-Chloropyridin-3-yl)-5-methyl-N-[(3S)-2-oxo-5-phenyl-1,3-dihydro-1,4-benzodiazepin-3-yl]-6,7-dihydro-5H-pyrazolo[5,1-b][1,3]oxazine-3-carboxamide]	> 25 µM	0.119 µM
C[C@@H]1CCn2nc(-c3cncc(Cl)c3)c(C(=O)N[C@H]3N=C(c4ccccc4)c4cccc(F)c4NC3=O)c2O1 [Example 47, (5R)-2-(5-Chloropyridin-3-yl)-5-methyl-N-[(3S)-9-fluoro-2-oxo-5-phenyl-1,3-dihydro-1,4-benzodiazepin-3-yl]-6,7-dihydro-5H-pyrazolo[5,1-b][1,3]oxazine-3-carboxamide]	> 25 µM	0.084 µM
